Test results: USRE49816E1, “Dipeptides as inhibitors of human immunoproteasomes” (CORNELL UNIVERSITY, priority 2014, dated 2024)
Read-outs that look alike come from different tables or passages of the source.

Experiments:
Karpas 1106p cells [1] = assay: Cytotoxicity (LD50) against Karpas lymphoma cells; assay type: cell-based, human; conditions: Table 4
Karpas 1106p cells [2] = assay: Cytotoxicity (LD50) against Karpas lymphoma cells; assay type: cell-based, human; conditions: Table 3
Excerpt: Table 3 lists the inhibition kinetic parameters, selectivity index, and calculated log Ps of selected dipeptides.

hu i-20S β5i-subunit = hu i-20S β5i-subunit (Homo sapiens, UniProt P20618+P28062); assay: N,C-capped dipeptides IC50, Ac-ANW-AMC fluorescence assay; assay type: biochemical; conditions: for SI (selectivity index): Hu c-20S over Hu i-20S
Protocol: (§1) All inhibitory assays for N,C capped dipeptides were performed in a black solid-bottom 96-well plate. In general, compound plates were prepared starting from 10 mM in 3× series dilution to 15 μM. 1 μl of DMSO stock was transferred to a black 96-well plate and 100 μL of reaction mixture were added 15 μM N-acetyl-Alanine-Asparagine-Tryptophan-7-amino-4-methylcourmarin (Ac-ANW-AMC) or 25 μM succinyl-Leucine-Leucine-Valine-Tyrosine-7-amino-4-methyl-courmarin (succ-LLVY-AMC), 0.4 nM hu i-20S β5i-subunit or 0.2 nM hu c-20S β5c-subunit, 0.02% SDS, 1% BSA, 0.5 mM EDTA in 20 mM HEPES buffer at pH7.5. The plates were then spun at 1000 rpm for 1 minute, and the fluorescence units of each well were recorded at λex=360 nm, λem=460 nm for 2 hours. The slopes of the initial linear range of the time course were used to calculate the velocity, and relative activities were normalized to the velocities of the DMSO control.

hu c-20S β5c-subunit = hu c-20S β5c-subunit (Homo sapiens, UniProt P20618+P28074); assay: N,C-capped dipeptides IC50, succ-LLVY-AMC fluorescence assay; assay type: biochemical
Protocol: as §1

[3] = tested on: proteasome inside the Karpas 1106p cells; assay: Cell-based Proteasome-Glo assay after compound removal; design: species or system human; conditions: 4 hours, read-out: Proteasome-glo β5-IC50
hu c-20S β5c = hu c-20S β5c (Homo sapiens, UniProt P20618+P28074); assay: Kinetic parameters of oxathiazolones vs hu c-20S β5c; assay type: biochemical; conditions: Hu20S β5c; from slopes of kobs vs [I]
hu i-20S β5i = hu i-20S β5i (Homo sapiens, UniProt P20618+P28062); assay: Kinetic parameters of oxathiazolones vs hu i-20S β5i; assay type: biochemical; conditions: for kinact: printed value is kinact × 10^3
Karpas cells = assay: Accumulation of poly-ubiquitinylated proteins in Karpas cells (anti-ub blot); assay type: cell-based, human; conditions: 24 hours treatment
Protocol: FIGS. 5A-C show experimental results relating to SAR studies and target engagement inside the cells. FIG. 5A is a graph showing experimental results relating to inhibition of i-20S β5i and c-20S β5c by selected dipeptides. […] FIG. 5C is an image of an SDS-page gel showing accumulation of poly-ubiquitinylated (ub) proteins. Karpas cells were treated with dipeptides, or with bortezomib as a control, at indicated concentrations for 24 hours, and the poly-ub proteins in the lysates were blotted with anti-ub antibody and visualized with a second antibody directed against the first antibody and tagged with a dye that absorbs infrared light (Odyssey® CLx imaging system, LICOR).

Which results are given for COC[C@H](NC(=O)OC(C)(C)C)C(=O)N[C@@H](C)C(=O)NCc1cccc2ccccc12 [DPLG-2032, tert-butyl ((S)-3-methoxy-1-(((S)-1-((naphthalen-1-ylmethyl)amino)-1-oxopropan-2-yl)amino)-1-oxopropan-2-yl)carbamate]?
LD50 Karpas (Karpas 1106p cells [1]): >100 µM; LD50 (Karpas 1106p cells [2]): 37 µM; IC50 (hu i-20S β5i-subunit): 77.8 µM; IC50 (hu c-20S β5c-subunit): > 100 µM; IC50 [3]: > 100 µM

Which results are given for Cc1sc(-c2nsc(=O)o2)cc1[N+](=O)[O-] [HT1171]?
kinact/KI (hu c-20S β5c): 10.1 M⁻¹ s⁻¹; kinact/KI (hu i-20S β5i; Hu20S β5i): 1010 M⁻¹ s⁻¹; kinact (hu i-20S β5i; Hu20S β5i): 0.00077 s⁻¹; Ki (hu i-20S β5i; Hu20S β5i, read-out: KI): 0.76 µM

With Cc1ccc(S(=O)(=O)N[C@@H](CC(=O)NOC(C)(C)C)C(=O)N[C@@H](C)C(=O)NCc2cccc3ccccc23)cc1 [DPLG-2091, (S)—N4-(tert-butoxy)-2-((4-methylphenyl)sulfonamido)-N1-((S)-1-((naphthalen-1-ylmethyl)amino)-1-oxopropan-2-yl)succinamide] as the compound, how does the “LD50 Karpas” value (Karpas 1106p cells [1]) read?
Its value is 5.3 µM.

And the LD50 (Karpas 1106p cells [2])?
Its LD50 is 5.3 µM.

What about the IC50 (hu i-20S β5i-subunit) of the same compound?
Its IC50 is 0.026 µM.

What about the “SI (selectivity index)” value (hu i-20S β5i-subunit) of the same compound?
Its value is 88.

What about the IC50 (hu c-20S β5c-subunit) of the same compound?
The IC50 was 2.3 µM.

And the IC50 [3]?
The IC50 was 0.064 µM.

C[C@H](NC(=O)[C@H](CC(=O)NC1COC1)NC(=O)CCc1ccccc1)C(=O)NCc1cccc2ccccc12 [DPLG-2130, (S)—N1-((S)-1-((naphthalen-1-ylmethyl)amino)-1-oxopropan-2-yl)-N4-(oxetan-3-yl)-2-(3-phenylpropanamido)succinamide] was tested. Which “LD50 Karpas” value (Karpas 1106p cells [1]) did it give?
The value was 67.8 µM.

What about the LD50 (Karpas 1106p cells [2]) of the same compound?
The LD50 was 67.8 µM.

What about the IC50 [3] of the same compound?
The IC50 was 1.13 µM.

Which results are given for COC[C@H](NC(=O)[C@H](CC(=O)NOC(C)(C)C)NC(=O)CCc1ccccc1)C(=O)NCc1cccc(OC)c1 [DPLG-2160, (S)—N^4-(tert-butoxy)-N^1—-((S)-3-methoxy-1-((3-methoxybenzyl)amino)-1-oxopropan-2-yl)-2-(3-phenylpropanamido)succinamide]?
LD50 Karpas (Karpas 1106p cells [1]): 0.05 µM; LD50 (Karpas 1106p cells [2]): 0.05 µM; IC50 (hu i-20S β5i-subunit): 0.0094 µM; SI (selectivity index) (hu i-20S β5i-subunit): 10; IC50 (hu c-20S β5c-subunit): 0.098 µM; IC50 [3]: 0.019 µM

Which results are given for C[C@H](NC(=O)[C@H](CC(=O)NOC(C)(C)C)NC(=O)CCc1ccccc1)C(=O)NCc1cccc2[nH]ccc12 [DPLG-2083, (S)—N^1—((S)-1-(((1H-indol-4-yl)methyl)amino)-1-oxopropan-2-yl)-N^4-(tert-butoxy)-2-(3-phenylpropanam-ido)succinamide]?
LD50 Karpas (Karpas 1106p cells [1]): 0.254 µM; LD50 (Karpas 1106p cells [2]): 0.254 µM; IC50 (hu i-20S β5i-subunit): 0.025 µM; SI (selectivity index) (hu i-20S β5i-subunit): 10; IC50 (hu c-20S β5c-subunit): 0.24 µM; IC50 [3]: 0.16 µM

How did the “accumulation of poly-ubiquitinylated proteins” value (Karpas cells) turn out when CC(C)C[C@H](NC(=O)[C@H](Cc1ccccc1)NC(=O)c1cnccn1)B(O)O [Bortezomib, reference compound] was run?
Its value is “accumulation”.

And the “LD50 Karpas” value (Karpas 1106p cells [1])?
Its value is 0.0017 µM.

And the IC50 [3]?
The IC50 was 0.0006 µM.

With O=c1oc(-c2ccc(-c3ccccc3)cc2)ns1 [HT2004] as the compound, how does the Ki (hu i-20S β5i) read?
The Ki was 1.4 µM.

For COC[C@H](NC(=O)[C@H](CC(=O)NOC(C)(C)C)NC(=O)CCc1ccccc1)C(=O)NCc1cccc2ccccc12 [DPLG-2086, (S)—N^4-(tert-butoxy)-N^1—((S)-3-methoxy-1-((naphthalen-1-ylmethyl)amino)-1-oxopropan-2-yl)-2-(3-phenylpropanamido)succinamide], which “accumulation of poly-ubiquitinylated proteins” value (Karpas cells) is on record?
The value was “accumulation of poly-Ub proteins”.

What about the “LD50 Karpas” value (Karpas 1106p cells [1]) of the same compound?
Its value is 0.46 µM.

And the LD50 (Karpas 1106p cells [2])?
The LD50 was 0.46 µM.

What about the IC50 [3] of the same compound?
Its IC50 is 0.005 µM.

With O=c1oc(-c2ccccn2)ns1 [HT1043] as the compound, how does the kinact/KI (hu c-20S β5c) read?
The kinact/KI was 0.2 M⁻¹ s⁻¹.

What about the kinact/KI (hu i-20S β5i; Hu20S β5i) of the same compound?
The kinact/KI was 129 M⁻¹ s⁻¹.

And the kinact (hu i-20S β5i; Hu20S β5i)?
Its kinact is 0.00025 s⁻¹.

What about the Ki (hu i-20S β5i; Hu20S β5i, read-out: KI) of the same compound?
The Ki was 2 µM.

How did the “LD50 Karpas” value (Karpas 1106p cells [1]) turn out when COC[C@H](NC(=O)[C@H](CC(=O)NOC(C)(C)C)NS(=O)(=O)c1ccc(C)cc1)C(=O)NCc1cccc2ccccc12 [DPLG-2150, (S)—N^4-(tert-butoxy)-N^1—((S)-3-methoxy-1-((naphthalen-1-ylmethyl)amino)-1-oxopropan-2-yl)-2-((4-methylphenyl)sulfonamido)succinamide] was run?
The value was 0.8 µM.

What about the LD50 (Karpas 1106p cells [2]) of the same compound?
Its LD50 is 0.8 µM.

And the IC50 (hu i-20S β5i-subunit)?
Its IC50 is 0.0044 µM.

What about the “SI (selectivity index)” value (hu i-20S β5i-subunit) of the same compound?
Its value is 139.

And the IC50 (hu c-20S β5c-subunit)?
Its IC50 is 0.61 µM.

What about the IC50 [3] of the same compound?
The IC50 was 0.009 µM.

How did the “LD50 Karpas” value (Karpas 1106p cells [1]) turn out when C[C@H](NC(=O)[C@H](CC(=O)NOC(C)(C)C)NC(=O)CCCc1ccccc1)C(=O)NCc1cccc2ccccc12 [DPLG-2127, (S)—N4-(tert-butoxy)-N1-((S)-1-((naphthalen-1-ylmethyl)amino)-1-oxopropan-2-yl)-2-(4-phenylbutanamido)succinamide] was run?
Its value is >100 µM.

And the LD50 (Karpas 1106p cells [2])?
Its LD50 is >100 µM.

And the IC50 [3]?
The IC50 was 0.16 µM.

C[C@H](NC(=O)[C@H](CC(=O)NOC(C)(C)C)NC(=O)C(F)(F)F)C(=O)NCc1cccc2ccccc12 [DPLG-2106, (S)—N4-(tert-butoxy)-N1-((S)-1-((naphthalen-1-ylmethyl)amino)-1-oxopropan-2-yl)-2-(2,2,2-trifluoroacetamido)succinamide] was tested. Which “LD50 Karpas” value (Karpas 1106p cells [1]) did it give?
Its value is 7.8 µM.

And the LD50 (Karpas 1106p cells [2])?
The LD50 was 7.8 µM.

What about the IC50 [3] of the same compound?
The IC50 was 1.46 µM.
